Source: BindingDB's records for doi:10.1016/s0960-894x(00)00026-3 (Universit&#224, 2000)

Legend:
[1] = Inhibition of Clostridium histolyticum collagenase (ChC) using a linear regression program
[2] = Inhibition of Clostridium histolyticum collagenase using a linear regression program

Question: For `CC(C(=O)NO)N(Cc1ccc([N+](=O)[O-])cc1)S(=O)(=O)c1ccc([N+](=O)[O-])c(Cl)c1` (centres undefined) [2-[(3-Chloro-4-nitro-benzenesulfonyl)-(4-nitro-benzyl)-amino]-N-hydroxy-propionamide], which Ki [1] is on record?
Answer: 9 µM

Question: Which Ki [2] does the source give for `CC(C(=O)NO)N(Cc1ccc([N+](=O)[O-])cc1)S(=O)(=O)c1cccc2cccnc12` (centres undefined) [N-Hydroxy-2-[(4-nitro-benzyl)-(quinoline-8-sulfonyl)-amino]-propionamide] here?
Answer: 8 µM

Question: For `CC(C(=O)NO)N(Cc1ccc([N+](=O)[O-])cc1)S(=O)(=O)c1cccc2c(N(C)C)cccc12` (centres undefined) [2-[(5-Dimethylamino-naphthalene-1-sulfonyl)-(4-nitro-benzyl)-amino]-N-hydroxy-propionamide], which Ki [2] is on record?
Answer: 7 µM

Question: Which Ki [2] does the source give for `CC(C(=O)O)N(Cc1ccc([N+](=O)[O-])cc1)S(=O)(=O)C(F)(F)F` (centres undefined) [2-[(4-Nitro-benzyl)-trifluoromethanesulfonyl-amino]-propionic acid] here?
Answer: 4.7 µM
